14 compounds from patent publication US11465978B2, “Anthranilic amides and the use thereof” (THE ADMINISTRATORS OF THE TULANE EDUCATIONAL FUND, priority 2013, dated 2022) can be followed below.

In test [1] the test system is pERK1/2. The experiment in a line: Western blot, inhibition of EGF-mediated formation of pERK1/2 in MDA-MB-231 cells. It counts as cell-based. As to conditions: for pERK-½ decrease (%) / pERK-½ relative activity (%): Example 3 table, MDA-MB-231, EGF stimulation; for pERK-½ decrease (%): DMSO = 0; for inhibition at 10 µM: Homo sapiens, MDA-MB-231, Table 1, MDA-MB-231, compounds 10 μM 30 min, then EGF 50 ng/mL 15 min, read-out: cellular pERK1/2 decrease (%); for pERK-½ relative activity (%): DMSO = 100; for cellular pERK1/2 activation (printed in the decrease column): Table 1, cell marked 'activation'. How it is done: (§1) FIG. 9 is a set of bar graphs showing a Western blot analysis of potential MEK5 inhibitors. The MDA-MB-231 triple negative breast cancer cell line was pretreated with compounds (10 μM) for 30 minutes followed by stimulation with epidermal growth factor (EGF, 50 ng/mL) for 15 minutes. Vehicle-treated cells were pretreated with DMSO for 30 minutes prior to EGF stimulation for 15 minutes. Protein visualization and quantification analysis were performed using LI-COR Odyssey Imager. * P<0.05 vs. Vehicle, one-way ANOVA followed by Tukey-Kramer test (n=3).
(§2) A number of compounds were tested for their potential as MEK5 inhibitors. The MDA-MB-231 triple negative breast cancer cell line was pretreated with 10 μM of compounds 24, 9b, 9a, 9c, 9e, 9f, 9d, 9h, 23, 7, and 15 for 30 minutes followed by stimulation with epidermal growth factor (EGF, 50 ng/mL) for 15 minutes. Vehicle-treated cells and known MEK1/2 inhibitor cells were pretreated with DMSO and U0126 respectively for 30 minutes prior to EGF stimulation for 15 minutes. Protein visualization and quantification analysis was performed using LI-COR Odyssey Imager. The results of the Western blot analysis are shown in FIG. 9. * P<0.05 vs. Vehicle, one-way ANOVA followed by Tukey-Kramer test (n=3).
(§3) MDA-MB-231 cells were grown on 10 cm cell culture plates [Sarstedt] in Dulbecco's Modified Eagle's Medium (DMEM; Gibco) with Ham's F12 Nutrient Mixture (1:1) (Invitrogen), 10% heat-inactivated FBS [Atlanta Biological and 0.5% penicillin/streptomycin [Gibco]. Cells were maintained at 37° C. with 5% CO2. Plating of the cells was done 36 hours before treatment in 35 mm culture plates [Sarstedt] and allowed to reach confluence. To test MEK-5 inhibitors, the cells were treated with epidermal growth factor (EGF; Sigma-Aldrich) 30 min after treatment with the compounds. 15 min after the addition of EGF, the cells were washed with 1×PBS [Sigma-Aldrich] and then lysed in 1% Triton X-100 buffer containing 20 mM Tris (pH 6.8), 137 mM NaCl, 25 mM beta glycerophosphate, 2 mM NaPPi, 2 mM EDTA, 1 mM Na3VO4, 10% glycerol, 5 μg/mL leupeptin, 5 μg/mL aprotinin, 2 mM benzamidine, 0.5 mM DTT, and 1 mM PMSF. The lysates were then centrifuged at 10,000 rpm for 10 min at 4° C.
(§4) Total protein content was assessed by Bradford Bio-Rad protein assay (Cat. No. 500-0006, Bio-Rad, Hercules, Calif.) and 30 μg of protein was loaded on a 8% SDS-PAGE gel for phosphorylated and total ERK1/2 and ERK5 proteins. After running the samples, gels were transferred to a nitrocellulose membrane (Cat. No. 926-31092, Licor Biosciences, Lincoln, Nebr.). After transfer, membranes were washed for 5 min with 1×PBS and blocked for 1 h in a Casein Blocking Buffer (Cat. No. 927-40200, Licor Biosciences) at room temperature. Membranes were then incubated overnight at 4° C. in primary antibody in CBB with 0.2% Tween-20. Antibodies included rabbit anti-phospho-ERK1/2 (Dilution—1:1000, Cat. No. 9101, Cell Signaling, Beverly, Mass.), mouse anti-total ERK1/2 (Dilution—1:1000, Cat. No. 9107, Cell Signaling), and rabbit anti-total ERK5 (Dilution—1:1,000, Cat. No. 3372, Cell Signaling). Mouse anti-α-Tubulin (Dilution—1:10,000, Cat. No. T5168, Sigma-Aldrich) was used as a loading control. After incubation with primary antibody, blots were washed in 1×PBS solution with 0.2% Tween-20 (1×PBS-T) and incubated with goat anti-rabbit (Dilution—1:10,000, Cat. No. 926-68021, LICOR Biosciences) and goat anti-mouse (Dilution—1:10,000, Cat. No. 926-32210, LICOR Biosciences) secondary antibodies for 1 h at room temperature. After washing the membranes with 1×PBS-T, the protein bands were visualized on an Odyssey Infrared Imager and quantified with Odyssey software (LICOR Biosciences).

The test system of test [2] is pERK5. The experiment in a line: Western blot, inhibition of EGF-mediated formation of pERK5 in MDA-MB-231 cells. In kind it is cell-based. As to conditions: for pERK-5 decrease (%): Example 3 table, DMSO = 0, MDA-MB-231, EGF stimulation; for inhibition at 10 µM: Homo sapiens, MDA-MB-231, Table 1, MDA-MB-231, compounds 10 μM 30 min, then EGF 50 ng/mL 15 min, read-out: cellular pERK5 decrease (%). How it is done:
as §1, §2, §3, §4

Where a name gives a salt, the structure may show the parent alone.

Turning to `CNC(=O)c1ccc(F)c(F)c1Nc1ccc(I)cc1F` [Compound 9c, 3,4-difluoro-2-((2-fluoro-4-iodophenyl)amino)-N-methylbenzamide], in test [1], the “pERK-½ decrease (%)” value is recorded as 99.6% and the inhibition at 10 µM turned out to be 99.6%. Moreover, in test [2], the “pERK-5 decrease (%)” value is reported as 20.4% and the inhibition at 10 µM amounted to 20.4%.
For `O=C(NCCO)c1ccc(F)c(F)c1Nc1ccc(I)cc1F` [IC-3-102], the inhibition at 10 µM in test [1] was -31.1%; in test [2] it was 47.9%.
Turning to `O=C(N[C@@H](CO)C(=O)O)c1ccc(F)c(F)c1Nc1ccc(I)cc1F` [IC-3-111], the inhibition at 10 µM in test [1] was determined as 85%.
As to `O=C(c1ccc(F)c(F)c1Nc1ccc(I)cc1F)N1CCOCC1` [IC-3-93], the values for the inhibition at 10 µM in test [1] and in test [2] were 47.8% and 76.3%, respectively.
As for `CN1CCN(C(=O)c2ccc(F)c(F)c2Nc2ccccc2)CC1` [Compound 15], in test [1], the “pERK-½ relative activity (%)” value was 8.5% and the “cellular pERK1/2 activation (printed in the decrease column)” value is “activation (+8.5) %”. In addition, in test [2], the “pERK-5 decrease (%)” value came to 82.4% and the inhibition at 10 µM is 82.4%.
Consider `O=C(O)c1ccc(F)c(F)c1Nc1ccccc1F` [Compound 13, 3,4-difluoro-2-((2-fluorophenyl)amino)benzoic acid], for which, in test [1], the “pERK-½ relative activity (%)” value is 7.1%. Moreover, in test [2], the “pERK-5 decrease (%)” value is 11.1%.
`CCNC(=O)c1ccc(F)c(F)c1Nc1ccc(I)cc1F` [Compound 9d, N-ethyl-3,4-difluoro-2-((2-fluoro-4-iodophenyl)amino)benzamide]: in test [1], the “pERK-½ decrease (%)” value was 98.6% and the inhibition at 10 µM turned out to be 98.6%. In test [2], the “pERK-5 decrease (%)” value stood at 8.5% and the inhibition at 10 µM amounted to 8.5%.
Turning to `COC(=O)c1ccc(F)c(F)c1Nc1ccc(I)cc1F` [Compound 9e, Methyl 3,4-difluoro-2-((2-fluoro-4-iodophenyl)amino)benzoate], in test [1], the “pERK-½ decrease (%)” value was determined as 98.9% and the inhibition at 10 µM stood at 98.9%. Also, in test [2], the “pERK-5 decrease (%)” value is recorded as 13.0% and the inhibition at 10 µM was 13%.
Regarding `CN1CCN(C(=O)c2ccccc2Nc2ccccc2)CC1` [Compound 23, (4-methylpiperazin-1-yl)(2-(phenylamino)phenyl)methanone], in test [1], the “pERK-½ decrease (%)” value was found to be 29.3%, the inhibition at 10 µM turned out to be 29.6% and the “cellular pERK1/2 activation (printed in the decrease column)” value is listed as “+5.5%”. Further, the “pERK-5 decrease (%)” value in test [2] is 71%.
For `O=C(c1ccc(F)c(F)c1Nc1ccc(I)cc1F)N1CCCCC1` [IC-3-97], the inhibition at 10 µM in test [1] was 42.4%; in test [2] it was 87.1%.
As for `O=C(NOC[C@H](O)CO)c1ccc(F)c(F)c1Nc1ccc(I)cc1F` [PD 0325901, reference compound], the “pERK-½ decrease (%)” value in test [1] was found to be 99.7%. In addition, the “pERK-5 decrease (%)” value in test [2] is recorded as 95.9%.
Regarding `CN(C)CCN(C)C(=O)c1ccc(F)c(F)c1Nc1ccc(I)cc1F` [Compound 9h, N-(2-(dimethylamino)ethyl)-3,4-difluoro-2-((2-fluoro-4-iodophenyl)amino)-N-methylbenzamide hydrochloride], in test [1], the “pERK-½ decrease (%)” value turned out to be 27.9% and the inhibition at 10 µM is 28.2%. Also, in test [2], the “pERK-5 decrease (%)” value is 9.4% and the inhibition at 10 µM came to 9%.
With `CN1CCN(C(=O)c2ccccc2Nc2ccc(I)cc2F)CC1` [Compound 24, (2-((2-fluoro-4-iodophenyl)amino)phenyl)(4-methylpiperazin-1-yl)methanone hydrochloride], in test [1], the “pERK-½ decrease (%)” value is given as 33.5% and the inhibition at 10 µM is 33.5%. Besides, in test [2], the “pERK-5 decrease (%)” value was found to be 30.9% and the inhibition at 10 µM was 20.9%.
For `N#CC(=C(/N)Sc1ccccc1N)/C(C#N)=C(\N)Sc1ccccc1N` [Compound U0126, reference compound], the “pERK-½ decrease (%)” value in test [1] is recorded as 99.6%. Further, in test [2], the “pERK-5 decrease (%)” value was found to be 43%.
